Experiments:
hSERT = hSERT (Homo sapiens, UniProt P31645); experiment: biochemical; format: binding
hD3R [1] = biological target: T1, hD3R (Homo sapiens, UniProt P35462); experiment: ERK1/2 phosphorylation; format: cell-based; conditions: for effect on ERK1/2 phosphorylation mediated by hD3R, compound alone (agonist mode): CHO-hD3R cells, quinpirole at 20 μmol/L; for competitive antagonism of ERK1/2 phosphorylation mediated by D3R: in the presence of 20 μmol/L dopamine
mice [2] = experiment: Catalepsy test in mice; format: in vivo, mouse; conditions: for Catalepsy peak effect (percent of cataleptic animals) / catalepsy under all tested doses: i.p.; for catalepsy under all tested doses: 23j up to 240 mg/kg, 36a/b/f up to 480 mg/kg
hD3R [3] = biological target: T1, hD3R; experiment: biochemical; format: binding; conditions: for inhibition at 10 µM: read-out: % inhibition at 10 μmol/L hD3, 10 μmol/L test compound
hD2R [4] = biological target: T2, hD2R (Homo sapiens, UniProt P14416); experiment: biochemical; format: binding; conditions: for inhibition at 10 µM: read-out: % inhibition at 10 μmol/L hD2
T2 sequence (P14416 whole entry): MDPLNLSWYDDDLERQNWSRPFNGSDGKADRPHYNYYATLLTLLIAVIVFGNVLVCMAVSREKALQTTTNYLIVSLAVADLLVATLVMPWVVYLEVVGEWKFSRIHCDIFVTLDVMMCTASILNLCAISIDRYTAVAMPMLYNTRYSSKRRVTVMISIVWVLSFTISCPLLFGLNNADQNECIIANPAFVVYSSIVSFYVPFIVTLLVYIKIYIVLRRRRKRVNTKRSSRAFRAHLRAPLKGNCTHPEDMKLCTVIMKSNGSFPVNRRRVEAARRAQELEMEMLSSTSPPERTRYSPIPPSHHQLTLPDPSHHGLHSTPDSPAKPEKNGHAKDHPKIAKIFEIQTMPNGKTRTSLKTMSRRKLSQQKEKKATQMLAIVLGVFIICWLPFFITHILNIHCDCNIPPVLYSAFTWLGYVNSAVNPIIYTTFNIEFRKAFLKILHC

h5-HT6 = h5-HT6 (Homo sapiens, UniProt P50406); experiment: biochemical; format: binding
h5-HT1A = h5-HT1A (Homo sapiens, UniProt P08908); experiment: biochemical; format: binding
Sequence of h5-HT1A (P08908 whole entry): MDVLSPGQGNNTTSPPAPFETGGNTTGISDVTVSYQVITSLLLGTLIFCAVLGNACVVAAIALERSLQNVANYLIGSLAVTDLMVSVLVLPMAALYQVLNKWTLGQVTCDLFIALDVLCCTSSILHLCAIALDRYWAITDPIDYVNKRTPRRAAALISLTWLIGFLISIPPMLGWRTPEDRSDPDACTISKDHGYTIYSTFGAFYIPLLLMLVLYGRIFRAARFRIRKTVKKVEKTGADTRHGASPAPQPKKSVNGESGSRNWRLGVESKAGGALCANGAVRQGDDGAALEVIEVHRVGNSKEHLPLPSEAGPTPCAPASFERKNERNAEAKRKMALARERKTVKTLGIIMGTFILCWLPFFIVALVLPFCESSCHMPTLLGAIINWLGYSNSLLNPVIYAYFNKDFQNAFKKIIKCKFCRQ

hD2R [5] = biological target: T2, hD2R; format: cell-based
[6] = BBB penetration study in ICR mice; format: in vivo, mouse
[7] = Weight gain on repeated oral dosing; format: in vivo, mouse; conditions: mice, p.o. once daily 30 days; 23j, 36b 30 mg/kg; RPD 1 mg/kg
h5-HT1B = h5-HT1B (Homo sapiens, UniProt P28222); experiment: biochemical; format: binding
hD4 = hD4 (Homo sapiens, UniProt P21917); experiment: biochemical; format: binding
Sequence of hD4 (P21917 whole entry): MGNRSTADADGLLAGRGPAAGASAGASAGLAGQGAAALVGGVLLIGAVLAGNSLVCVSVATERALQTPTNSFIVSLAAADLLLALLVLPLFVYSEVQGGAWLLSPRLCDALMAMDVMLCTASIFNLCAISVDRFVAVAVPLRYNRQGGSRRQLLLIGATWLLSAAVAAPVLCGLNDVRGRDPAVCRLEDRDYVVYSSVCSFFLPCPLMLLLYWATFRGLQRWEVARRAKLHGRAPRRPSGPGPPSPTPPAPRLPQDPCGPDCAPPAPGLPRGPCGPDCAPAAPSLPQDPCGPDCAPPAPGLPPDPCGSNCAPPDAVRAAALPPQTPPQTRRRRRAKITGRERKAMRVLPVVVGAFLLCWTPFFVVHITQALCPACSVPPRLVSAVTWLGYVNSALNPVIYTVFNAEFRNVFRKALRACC

mice [8] = experiment: Serum prolactin after repeated oral dosing; format: in vivo, mouse; conditions: after 30 days p.o. dosing, 23j, 36b 30 mg/kg, RPD 1 mg/kg
ICR mice [9] = experiment: Apomorphine-induced climbing; format: in vivo, mouse; conditions: i.p., apomorphine 1.0 mg/kg s.c.
ICR mice [10] = experiment: MK-801-induced hyperactivity; conditions: 3 mg/kg i.p.
ICR mice [11] = experiment: Spontaneous locomotor test; conditions: compounds 30 mg/kg i.p., RPD 1 mg/kg, 15 min
mice [12] = experiment: Acute toxicity assay in mice; format: in vivo, mouse; conditions: i.p., up to 600 mg/kg
PC12 cells = experiment: CCK8 cytotoxicity test, PC12; format: cell-based; conditions: 24 h
hD1 = hD1 (Homo sapiens, UniProt P21728); experiment: biochemical; format: binding
hERG channel = hERG channel (Homo sapiens, UniProt Q12809); experiment: hERG channel automated patch clamp; format: cell-based
Sequence of hERG channel (Q12809 whole entry): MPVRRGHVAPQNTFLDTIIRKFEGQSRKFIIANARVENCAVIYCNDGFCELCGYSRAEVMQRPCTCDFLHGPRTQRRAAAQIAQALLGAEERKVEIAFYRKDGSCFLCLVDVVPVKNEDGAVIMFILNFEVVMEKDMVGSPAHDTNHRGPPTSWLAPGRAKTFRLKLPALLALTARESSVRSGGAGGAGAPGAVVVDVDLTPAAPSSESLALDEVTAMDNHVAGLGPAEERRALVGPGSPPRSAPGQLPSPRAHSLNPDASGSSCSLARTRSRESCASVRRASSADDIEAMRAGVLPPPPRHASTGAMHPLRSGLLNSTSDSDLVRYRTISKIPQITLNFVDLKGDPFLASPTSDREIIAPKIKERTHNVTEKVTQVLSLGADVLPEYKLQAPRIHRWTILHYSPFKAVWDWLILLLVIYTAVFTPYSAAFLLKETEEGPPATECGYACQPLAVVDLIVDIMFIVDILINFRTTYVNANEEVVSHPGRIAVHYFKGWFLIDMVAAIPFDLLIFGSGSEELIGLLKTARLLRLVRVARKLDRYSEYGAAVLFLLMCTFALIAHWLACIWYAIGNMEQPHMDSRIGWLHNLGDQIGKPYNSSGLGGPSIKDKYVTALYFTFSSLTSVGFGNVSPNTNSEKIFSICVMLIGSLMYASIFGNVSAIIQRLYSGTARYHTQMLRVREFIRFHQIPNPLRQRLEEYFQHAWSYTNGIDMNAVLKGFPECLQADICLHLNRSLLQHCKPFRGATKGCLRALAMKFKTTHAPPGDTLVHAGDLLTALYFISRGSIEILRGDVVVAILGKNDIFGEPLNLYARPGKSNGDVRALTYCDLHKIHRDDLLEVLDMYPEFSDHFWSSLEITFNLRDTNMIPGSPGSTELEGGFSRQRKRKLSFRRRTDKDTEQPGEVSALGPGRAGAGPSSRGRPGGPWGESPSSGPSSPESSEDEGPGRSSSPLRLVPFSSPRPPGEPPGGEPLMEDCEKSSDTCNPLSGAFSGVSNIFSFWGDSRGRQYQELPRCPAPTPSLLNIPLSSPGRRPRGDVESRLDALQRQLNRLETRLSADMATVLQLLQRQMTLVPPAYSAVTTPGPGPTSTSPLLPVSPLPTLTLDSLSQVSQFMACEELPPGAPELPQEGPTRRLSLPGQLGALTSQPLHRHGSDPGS

hα1 = format: binding, rat; conditions: read-out: Ki hα1; Table 6 selectivity profile
hDAT = hDAT (Rattus norvegicus, UniProt P23977); experiment: biochemical; format: binding; conditions: Table 6 selectivity profile
hH1 = hH1 (Cavia porcellus, UniProt P31389); experiment: biochemical; format: binding, guinea pig
hD5 = hD5 (Homo sapiens, UniProt P21918); experiment: biochemical; format: binding
h5-HT2C = h5-HT2C (Rattus norvegicus, UniProt P08909); experiment: biochemical; format: binding; conditions: Table 6 selectivity profile
Sequence of h5-HT2C (P08909 33-460): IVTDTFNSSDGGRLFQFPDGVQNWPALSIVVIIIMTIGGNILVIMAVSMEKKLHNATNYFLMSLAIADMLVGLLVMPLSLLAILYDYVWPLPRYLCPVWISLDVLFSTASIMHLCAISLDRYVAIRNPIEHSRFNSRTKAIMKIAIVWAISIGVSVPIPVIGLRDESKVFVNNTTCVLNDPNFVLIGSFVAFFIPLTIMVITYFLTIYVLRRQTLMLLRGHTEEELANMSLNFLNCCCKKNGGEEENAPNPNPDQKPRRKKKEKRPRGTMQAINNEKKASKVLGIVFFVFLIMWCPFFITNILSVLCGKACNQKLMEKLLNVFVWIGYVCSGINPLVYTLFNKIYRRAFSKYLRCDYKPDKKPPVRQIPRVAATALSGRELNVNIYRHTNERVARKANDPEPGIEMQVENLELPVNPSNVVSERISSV

hNET = hNET (Homo sapiens, UniProt P23975); experiment: biochemical; format: binding
Sequence of hNET (P23975 whole entry): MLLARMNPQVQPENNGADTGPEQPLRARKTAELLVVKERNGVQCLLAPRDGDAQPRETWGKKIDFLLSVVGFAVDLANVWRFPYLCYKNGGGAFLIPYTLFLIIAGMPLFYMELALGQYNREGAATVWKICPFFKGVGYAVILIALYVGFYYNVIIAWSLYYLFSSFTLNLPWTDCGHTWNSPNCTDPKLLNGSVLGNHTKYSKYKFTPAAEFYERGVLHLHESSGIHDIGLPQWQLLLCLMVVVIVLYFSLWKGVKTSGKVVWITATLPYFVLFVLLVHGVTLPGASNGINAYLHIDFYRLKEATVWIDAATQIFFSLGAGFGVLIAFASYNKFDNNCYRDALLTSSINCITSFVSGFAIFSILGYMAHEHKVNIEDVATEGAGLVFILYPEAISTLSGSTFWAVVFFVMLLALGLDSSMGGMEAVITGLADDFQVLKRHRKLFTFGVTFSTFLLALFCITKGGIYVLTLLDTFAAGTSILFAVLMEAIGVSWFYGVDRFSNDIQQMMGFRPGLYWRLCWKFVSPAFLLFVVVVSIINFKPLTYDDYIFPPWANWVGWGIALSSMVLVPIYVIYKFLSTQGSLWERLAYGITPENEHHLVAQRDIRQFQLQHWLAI

h5-HT2A = h5-HT2A (Homo sapiens, UniProt P28223); experiment: biochemical; format: binding
Sequence of h5-HT2A (P28223 whole entry): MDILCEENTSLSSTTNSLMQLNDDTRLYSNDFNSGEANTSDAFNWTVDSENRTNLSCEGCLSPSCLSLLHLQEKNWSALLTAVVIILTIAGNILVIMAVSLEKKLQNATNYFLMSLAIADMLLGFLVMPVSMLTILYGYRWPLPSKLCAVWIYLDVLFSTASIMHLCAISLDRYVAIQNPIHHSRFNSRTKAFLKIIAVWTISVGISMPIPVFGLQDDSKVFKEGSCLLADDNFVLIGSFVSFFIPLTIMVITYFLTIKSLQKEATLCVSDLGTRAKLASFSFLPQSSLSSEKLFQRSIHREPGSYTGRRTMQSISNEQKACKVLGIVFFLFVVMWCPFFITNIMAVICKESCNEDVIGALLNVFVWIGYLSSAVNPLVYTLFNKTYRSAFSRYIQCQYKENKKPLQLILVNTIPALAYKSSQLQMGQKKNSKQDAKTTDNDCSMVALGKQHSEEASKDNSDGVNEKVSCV

[13] = Pharmacokinetics study in ICR mice; format: in vivo, mouse; conditions: for half-life: t1/2, ICR mice
BV2 cells = experiment: CCK8 cytotoxicity test, BV2; format: cell-based; conditions: 24 h, CCK8, compared with RPD
HEK293T cells = experiment: CCK8 cytotoxicity test, HEK293T; format: cell-based; conditions: 24 h, CCK8, compared with RPD
ICR mice [14] = experiment: Tail suspension test; format: in vivo, mouse; conditions: 36b 3, 10, 30 mg/kg, DLX 15 mg/kg
ICR mice [15] = experiment: Forced swimming test; format: in vivo, mouse; conditions: 36b 3, 10, 30 mg/kg, DLX 15 mg/kg
[16] = Ki hD3, three experiments, means ± SEM
[17] = hERG inhibition IC50, patch clamp, tested three times
[18] = ICR, mouse, plasma, iv, 3 mg/kg
[19] = ICR, mouse, plasma, po, 10 mg/kg

T1 sequence (P35462 whole entry): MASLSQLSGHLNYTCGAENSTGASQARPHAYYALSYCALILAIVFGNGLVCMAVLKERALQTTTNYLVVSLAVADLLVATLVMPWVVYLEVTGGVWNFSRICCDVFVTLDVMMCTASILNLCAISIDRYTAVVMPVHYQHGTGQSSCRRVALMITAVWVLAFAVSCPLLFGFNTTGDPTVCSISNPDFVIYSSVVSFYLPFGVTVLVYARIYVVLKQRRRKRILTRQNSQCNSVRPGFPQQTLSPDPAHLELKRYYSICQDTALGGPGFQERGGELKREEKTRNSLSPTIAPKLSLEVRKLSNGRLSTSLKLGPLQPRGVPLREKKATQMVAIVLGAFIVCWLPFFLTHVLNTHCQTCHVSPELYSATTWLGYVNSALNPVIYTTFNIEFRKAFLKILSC
Sequence of hSERT (P31645 whole entry): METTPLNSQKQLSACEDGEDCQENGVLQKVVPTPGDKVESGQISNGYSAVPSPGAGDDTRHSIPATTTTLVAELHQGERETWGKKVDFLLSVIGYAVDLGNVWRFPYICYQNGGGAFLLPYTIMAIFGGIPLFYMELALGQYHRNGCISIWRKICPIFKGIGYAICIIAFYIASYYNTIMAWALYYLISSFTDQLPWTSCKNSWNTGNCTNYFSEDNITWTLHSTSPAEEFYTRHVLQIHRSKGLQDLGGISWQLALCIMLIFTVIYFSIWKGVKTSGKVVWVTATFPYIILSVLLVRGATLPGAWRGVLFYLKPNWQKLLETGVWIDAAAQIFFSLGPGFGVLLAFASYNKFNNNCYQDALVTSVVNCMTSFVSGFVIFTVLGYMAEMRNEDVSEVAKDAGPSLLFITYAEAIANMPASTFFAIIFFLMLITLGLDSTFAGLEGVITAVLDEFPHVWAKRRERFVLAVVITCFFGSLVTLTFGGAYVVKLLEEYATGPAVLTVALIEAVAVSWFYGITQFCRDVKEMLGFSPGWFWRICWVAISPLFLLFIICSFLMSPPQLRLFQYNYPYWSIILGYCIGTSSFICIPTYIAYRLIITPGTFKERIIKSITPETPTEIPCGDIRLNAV

CCn1c2ccccc2c2cc(CNCCCCNC(=O)c3ccc(-c4cccnc4)cc3)ccc21 [23j]
Ki (hSERT): 5.41 µM
effect on ERK1/2 phosphorylation mediated by hD3R, compound alone (agonist mode) (hD3R [1]): no influence
competitive antagonism of ERK1/2 phosphorylation mediated by D3R (hD3R [1]): dose-dependently inhibit
Catalepsy MED i.p. (minimum effective dose) (mice [2]): ≥240.0 mg/kg
Catalepsy peak effect (percent of cataleptic animals) (mice [2]): 0.0%
catalepsy under all tested doses (mice [2]): did not elicit catalepsy
improvement of D3R binding affinity versus the phenyl group (23g) (hD3R [3]): approximately 10 fold
Ki (hD3R [3]; Ki hD3, Table 6 selectivity profile): 0.0168 µM
Ki (hD3R [3]; [16]): 0.0139 ± 0.0034 µM
inhibition at 10 µM (hD3R [3]): 107.3 ± 0.3%
Ki (hD2R [4]): > 10 µM
inhibition at 10 µM (hD2R [4]): 12.4 ± 5.8%
Ki (h5-HT6): 8.72 µM
Ki (h5-HT1A): 0.579 µM
effect on ERK1/2 phosphorylation mediated by hD2R, compound alone (agonist mode) (hD2R [5]): weak partial agonism
Brain/plasma ratio at 2.0 h ([6]; 3 mg/kg i.v., 3 mg/kg): 1.60
Brain concentration at 0.5 h ([6]; 10 mg/kg p.o.): too low to test
concentration at 0.5 h ([6]; ICR, mouse, brain, iv, 3 mg/kg, Brain concentration at 0.5 h, 3 mg/kg i.v.): 98 ng/mL
concentration at 2 h ([6]; ICR, mouse, brain, iv, 3 mg/kg, Brain concentration at 2.0 h, 3 mg/kg i.v.): 11.5 ng/mL
Kp at 0.5 h ([6]; ICR, mouse, brain, iv, 3 mg/kg, Brain/plasma ratio at 0.5 h, 3 mg/kg i.v.): 0.55
concentration at 0.5 h ([6]; ICR, mouse, plasma, iv, 3 mg/kg, Plasma concentration at 0.5 h, 3 mg/kg i.v.): 180 ng/mL
concentration at 2 h ([6]; ICR, mouse, plasma, iv, 3 mg/kg, Plasma concentration at 2.0 h, 3 mg/kg i.v.): 7.17 ng/mL
concentration at 0.5 h ([6]; ICR, mouse, plasma, po, 10 mg/kg, Plasma concentration at 0.5 h, 10 mg/kg p.o.): 53.4 ng/mL
concentration at 2 h ([6]; ICR, mouse, plasma, po, 10 mg/kg, Plasma concentration at 2.0 h, 10 mg/kg p.o.): 2.89 ng/mL
body weight / weight gain [7]: No influence on body weight
Ki (h5-HT1B): 0.172 µM
Ki (hD4): > 10 µM
serum prolactin level (mice [8]): nonsignificant serum prolactin change
inhibition of apomorphine-induced climbing (ICR mice [9]): dose-dependently inhibit
inhibition of MK-801-induced hyperactivity at 3 mg/kg (ICR mice [10]): did not show the inhibition activity
effect on spontaneous locomotion (ICR mice [11]): no influences
acute toxicity / tolerance (mice [12]): dose-dependent lethal toxicity from 240 to 600 mg/kg
cytotoxicity in PC12 cells (PC12 cells): significant cytotoxicity at high concentrations
Ki (hD1): > 10 µM
IC50 (hERG channel; [17]): 2.46 µM
Ki (hα1): 8.35 µM
Ki (hDAT): 6.1 µM
Ki (hH1): 5.2 µM
Ki (hD5): > 10 µM
Ki (h5-HT2C): 2.23 µM
Ki (hNET): > 10 µM
Ki (h5-HT2A): 0.214 µM
t1/2 ([13]; ICR mice, 10 mg/kg p.o., single dose, 10 mg/kg): 70.2 min
AUC [13, 18]: 326 ng·h/mL
Cmax [13, 18]: 567 ng/mL
MRT [13, 18]: 28.8 min
Tmax [13, 18]: 4.8 min
Vd [13, 18]: 4.44 L/kg
clearance [13, 18]: 153 mL/min/kg
half-life ([13]; ICR, mouse, plasma, iv, 3 mg/kg, 3 mg/kg i.v., single dose): 31.8 min
bioavailability ([13]; ICR, mouse, plasma, oral, 10 mg/kg): 8.7%
AUC [13, 19]: 94.4 ng·h/mL
Cmax [13, 19]: 78.8 ng/mL
MRT [13, 19]: 52.2 min
Tmax [13, 19]: 10.2 min
half-life ([13]; ICR, mouse, plasma, po, 10 mg/kg, 10 mg/kg p.o., single dose): 66 min

Cn1c2c(c3ccccc31)CN(CCCCNC(=O)c1ccc(-c3ccccc3)cc1)CC2 [36f]
effect on ERK1/2 phosphorylation mediated by hD3R, compound alone (agonist mode) (hD3R [1]): no influence
competitive antagonism of ERK1/2 phosphorylation mediated by D3R (hD3R [1]): dose-dependently inhibit
Catalepsy MED i.p. (minimum effective dose) (mice [2]): ≥480.0 mg/kg
Catalepsy peak effect (percent of cataleptic animals) (mice [2]): 0.0%
catalepsy under all tested doses (mice [2]): did not elicit catalepsy
Ki (hD3R [3]; [16]): 0.0041 ± 0.0003 µM
inhibition at 10 µM (hD3R [3]): 104 ± 1.4%
Ki (hD2R [4]): > 10 µM
inhibition at 10 µM (hD2R [4]): -20.7 ± 4.9%
effect on the viability of BV2 (BV2 cells): less effects
effect on ERK1/2 phosphorylation mediated by hD2R, compound alone (agonist mode) (hD2R [5]): no functional affects
inhibition of MK-801-induced hyperactivity at 3 mg/kg (ICR mice [10]): reduced the distance of mice movement
effect on the viability of HEK293T (HEK293T cells): less effects
effect on spontaneous locomotion (ICR mice [11]): no influences
acute toxicity / tolerance (mice [12]): well tolerant
IC50 (hERG channel; hERG IC50, patch clamp): > 40 µM
IC50 (hERG channel; [17]): 46.9 µM

CNCC[C@H](Oc1cccc2ccccc12)c1cccs1 [DLX, duloxetine, reference compound]
immobility time in the TST (ICR mice [14]): robust decrease
FST latency (ICR mice [15]): failed to prolong
immobility time of FST (ICR mice [15]): robust decrease

From publication PMC10638516 (Acta Pharmaceutica Sinica. B, 2023)
